Assay results taken from the CheMixHub viscosity set.

Assay: xn = mol fraction of the nth substance listed

COCCOCCOCCOCCOC + CCOC(C)=O
viscosity [mPa·s], 101 kPa
Settings	298.15 K	308.15 K	318.15 K
x1 = 0.0108	0.448	0.399	0.364
x1 = 0.0195	0.462	0.413	0.375
x1 = 0.0488	0.514	0.456	0.413
x1 = 0.0905	0.594	0.521	0.465
x1 = 0.1406	0.695	0.607	0.534
x1 = 0.1786	0.779	0.673	0.591
x1 = 0.2377	0.919	0.784	0.68
x1 = 0.3377	1.176	0.988	0.847
x1 = 0.4796	1.579	1.315	1.092
x1 = 0.5793	1.896	1.549	1.282
x1 = 0.6422	2.11	1.699	1.4
x1 = 0.7422	2.453	1.97	1.549
x1 = 0.8246	2.726	2.169	1.755
x1 = 0.8574	2.878	2.258	1.826
x1 = 0.9081	3.019	2.398	1.921
x1 = 0.9454	3.159	2.488	1.998
x1 = 0.9792	3.305	2.581	2.072

Clc1ccccc1 + CCOC(C)=O
viscosity [mPa·s], 101 kPa
Settings	298.15 K	308.15 K
x2 = 0.0415	0.729	0.658
x2 = 0.1504	0.669	0.607
x2 = 0.2503	0.621	0.567
x2 = 0.3519	0.58	0.531
x2 = 0.4264	0.553	0.507
x2 = 0.4878	0.534	0.489
x2 = 0.5527	0.515	0.472
x2 = 0.6519	0.489	0.448
x2 = 0.7505	0.468	0.428
x2 = 0.8515	0.449	0.409
x2 = 0.9389	0.436	0.396

N#CCCCCC#N + CCOC(C)=O
303.15 K, 101.33 kPa
Settings	viscosity [mPa·s]
x1 = 0.1075	0.5353
x1 = 0.3039	0.8893
x1 = 0.3934	1.116
x1 = 0.4973	1.451
x1 = 0.5975	1.861
x1 = 0.6944	2.366
x1 = 0.85	3.442

C=CC(=O)OCC + CCOCCOCCO
viscosity [mPa·s], 101 kPa
Settings	293.15 K	298.15 K	303.15 K	308.15 K	313.15 K	318.15 K
x2 = 0.0707	0.666	0.624	0.587	0.551	0.521	0.499
x2 = 0.1417	0.76	0.708	0.662	0.62	0.582	0.547
x2 = 0.2167	0.879	0.813	0.756	0.704	0.66	0.619
x2 = 0.2803	0.997	0.918	0.85	0.79	0.735	0.686
x2 = 0.3626	1.192	1.075	0.989	0.914	0.847	0.788
x2 = 0.4228	1.335	1.227	1.113	1.024	0.946	0.877
x2 = 0.5004	1.571	1.438	1.305	1.175	1.079	0.995
x2 = 0.5659	1.812	1.628	1.477	1.329	1.214	1.112
x2 = 0.6497	2.136	1.927	1.737	1.563	1.411	1.287
x2 = 0.7196	2.467	2.207	1.956	1.759	1.599	1.459
x2 = 0.791	2.845	2.512	2.233	1.998	1.797	1.627
x2 = 0.869	3.342	2.93	2.558	2.302	2.046	1.857
x2 = 0.9299	3.752	3.274	2.84	2.552	2.258	2.044

Clc1ccccc1 + CN1CCCC1=O
viscosity [mPa·s], 101 kPa
Settings	x2 = 0.1055	x2 = 0.2097	x2 = 0.3127	x2 = 0.4144	x2 = 0.5149	x2 = 0.6142	x2 = 0.7124	x2 = 0.8094	x2 = 0.9052
303.15 K	0.8395	0.9497	1.057	1.153	1.242	1.322	1.39	1.455	1.508
308.15 K	0.7814	0.8809	0.9724	1.059	1.14	1.207	1.267	1.323	1.366
313.15 K	0.737	0.8284	0.9144	0.9933	1.067	1.132	1.187	1.24	1.282
318.15 K	0.6786	0.7611	0.8372	0.9111	0.9802	1.04	1.093	1.137	1.175

CCOP(=O)(OCC)OCC + CN(C)C=O
298.15 K, 101.3 kPa
Settings	viscosity [mPa·s]
x1 = 0.1003	0.883
x1 = 0.2008	0.967
x1 = 0.298	1.044
x1 = 0.398	1.123
x1 = 0.4979	1.195
x1 = 0.6076	1.268
x1 = 0.6995	1.329
x1 = 0.7969	1.389
x1 = 0.8973	1.447
